Test results from patent US20030180957A1, “Target and method” (Sense Proteomic Limited, priority 2001, published 2003).

Target: Neutravidin (Gallus gallus, UniProt P02701)
Assay: surface capture of BSA-biotin on Neutravidin coated MALDI target, competition by free biotin
Assay type: binding
Details: MALDI target coated with PLL-PEG-biotin and Neutravidin; MALDI mass spectrum readout
Source text: The specificity of the surface capture was confirmed with the following experiments. BSA-Biotin was deposited on the MALDI target without Neutravidin or without the Biotin layer. BSA-Biotin was not detected in either case. Furthermore, binding of BSA-biotin to the Neutravidin coated surface is inhibited by the presence of free biotin. The database search results for BSA-biotin are presented in the appendix A.
MALDI targets are cleaned before use with acetone, acetonitrile, double distilled water and dried under nitrogen. Each position on the MALDI target is coated with 500 nanoliter 1%PLL-PEG-2%Biotin solution dissolved in desalting buffer. The target is then placed in a humid chamber for one hour at room temperature. Unbound PLL-PEG is rinsed with […] washing buffer followed by two washes with […] washing buffer. The target surface is dried under nitrogen. The PLL-PEG coating is then overlaid with 500 nanoliter of 0.5 mg/ml Neutravidin at each position of the array, incubated for one hour at RT in a humid chamber, rinsed with washing buffer, washed twice with […] washing buffer and dried under nitrogen. THE MALDI target is now ready to be used as a highly specific affinity capture surface. […]

Chain of Neutravidin (P02701 25-152): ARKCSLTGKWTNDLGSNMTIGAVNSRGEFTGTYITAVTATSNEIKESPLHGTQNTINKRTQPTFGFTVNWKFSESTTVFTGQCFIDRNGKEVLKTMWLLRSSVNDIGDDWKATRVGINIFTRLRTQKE

## O=C(O)CCCC[C@@H]1SC[C@@H]2NC(=O)N[C@@H]21 [biotin]
  binding of BSA-biotin to the Neutravidin coated surface in the presence of free biotin: inhibited
